Data as given in US20090111798A1, “5,6-DIHYDRO-1H-PYRIDIN-2-ONE COMPOUNDS” (priority 2006, published 2009).
pIC50: −log10 of the molar value.

Target: NS5B polymerase (Hepatitis C virus genotype 1b, UniProt P26663)
Experiment: biochemical
Settings: NS5B polymerase inhibition; 20 nM enzyme, 75 min at 28° C.
Protocol: Compounds were tested for HCV polymerase inhibition. Assays were performed in a 96-well streptavidin-coated FlashPlate using 20 nM enzyme, 0.5μ Ci of [α-^33P]GTP, 0.6 μM GTP, and 250 nM 5′biotinylated oligo (rG13)/poly rC in 20 mM Tris-HCl, pH 7.5, 5 mM MgCl2, 5 mM dithiothreitol, 0.1 g/L bovine serum albumin, and 100 U/mL RNAse inhibitor. The reaction was stopped by aspiration after 75 min at 28° C. and the plate was washed several times. After washing and drying the plate, incorporated radioactivity was counted using a Microbeta scintillation counter. IC50 values were calculated relative to the uninhibited control and inhibition data were fitted to a 4-parameter IC50 equation.

NS5B polymerase, sequence (P26663 2420-3010): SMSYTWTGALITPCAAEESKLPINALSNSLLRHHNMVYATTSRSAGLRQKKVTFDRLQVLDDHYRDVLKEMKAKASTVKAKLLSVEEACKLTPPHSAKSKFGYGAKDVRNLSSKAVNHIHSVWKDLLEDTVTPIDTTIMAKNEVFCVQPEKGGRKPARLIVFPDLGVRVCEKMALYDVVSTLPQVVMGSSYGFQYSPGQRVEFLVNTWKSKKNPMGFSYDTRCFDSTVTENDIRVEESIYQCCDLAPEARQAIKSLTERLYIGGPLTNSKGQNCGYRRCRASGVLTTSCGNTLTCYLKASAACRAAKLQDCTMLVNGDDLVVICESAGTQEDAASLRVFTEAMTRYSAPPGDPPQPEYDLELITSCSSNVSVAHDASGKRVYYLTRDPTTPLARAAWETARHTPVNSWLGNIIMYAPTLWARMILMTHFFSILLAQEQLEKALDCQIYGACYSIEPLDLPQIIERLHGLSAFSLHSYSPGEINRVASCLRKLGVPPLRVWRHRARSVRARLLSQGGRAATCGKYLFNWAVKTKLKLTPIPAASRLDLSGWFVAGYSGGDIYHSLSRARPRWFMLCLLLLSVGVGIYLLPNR

Row | SMILES | pIC50
1 | CC(C)N1C(=O)C(C2=NS(=O)(=O)c3cc(NS(C)(=O)=O)ccc3N2)=C(O)[C@@H]2CCC[C@@H]21 (relative stereo) [Example 55, cis-N-[3-(4-Hydroxy-1-isopropyl-2-oxo-2,4a,5,6,7,7a-hexahydro-1H-[1]pyrindin-3-yl)-1,1-dioxo-1,4-dihydro-1λ^6-benzo[1,2,4]thiadiazin-7-yl]-methanesulfonamide] | 6.00 to 7.00
2 | CS(=O)(=O)Nc1ccc2c(c1)S(=O)(=O)N=C(C1=C(O)[C@@H]3CCC[C@@H]3N(Cc3ccc(Cl)cc3)C1=O)N2 (relative stereo) [Example 56, cis-N-{3-[1-(4-Chloro-benzyl)-4-hydroxy-2-oxo-2,4a,5,6,7,7a-hexahydro-1H-[1]pyrindin-3-yl]-1,1-dioxo-1,4-dihydro-1λ^6-benzo[1,2,4]thiadiazin-7-yl}-methanesulfonamide] | > 7.70
3 | CS(=O)(=O)Nc1ccc2c(c1)S(=O)(=O)C=C(C1=C(O)[C@@H]3CCCCC[C@@H]3N(Cc3ccc(F)cc3)C1=O)N2 (relative stereo) [Example 57, cis-N-{3-[1-(4-Fluoro-benzyl)-4-hydroxy-2-oxo-2,4a,5,6,7,8,9,9a-octahydro-1H-cyclohepta[b]pyridin-3-yl]-1,1-dioxo-1,4-dihydro-1λ^6-benzo[1,4]thiazin-7-yl}-methanesulfonamide] | > 7.70
4 | CS(=O)(=O)Nc1ccc2c(c1)S(=O)(=O)N=C(C1=C(O)C3CCCCCC3N(Cc3ccc(F)cc3)C1=O)N2 (stereo not shown) [Example 2, N-{3-[1-(4-Fluoro-benzyl)-4-hydroxy-2-oxo-2,4-a,5,6,7,8,9,9a-octahydro-1H-cyclohepta[b]pyridin-3-yl]-1,1-dioxo-1,4-dihydro-1λ^6-benzo[1,2,4]thiadiazin-7-yl}-methanesulfonamide] | 7.00 to 7.70
5 | CS(=O)(=O)Nc1ccc2c(c1)S(=O)(=O)N=C(C1=C(O)C3CCCCCCC3N(Cc3ccc(F)cc3)C1=O)N2 (stereo not shown) [Example 3, N-{3-[1-(4-Fluoro-benzyl)-4-hydroxy-2-oxo-1,2,4a,5,6,7,8,9,10,10a-decahydro-cycloocta[b]pyridin-3-yl]-1,1-dioxo-1,4-dihydro-1λ^6-benzo[1,2,4]thiadiazin-7-yl]-methanesulfonamide] | 6.00 to 7.00
6 | CS(=O)(=O)Nc1ccc2c(c1)S(=O)(=O)N=C(C1=C(O)[C@@H]3CCC[C@@H]3N(Cc3ccc(F)c(Cl)c3)C1=O)N2 [Example 11, (4aR,7aS)—N-{3-[1-(3-Chloro-4-fluoro-benzyl)-4-hydroxy-2-oxo-2,4-a,5,6,7,7a-hexahydro-1H-[1]pyrindin-3-yl]-1,1-dioxo-1,4-dihydro-1λ^6-benzo[1,2,4]thiadiazin-7-yl}-methanesulfonamide] | > 7.70
7 | CS(=O)(=O)Nc1ccc2c(c1)S(=O)(=O)N=C(C1=C(O)[C@@H]3CCC[C@@H]3N(Cc3ccc(F)cc3)C1=O)N2 [Example 12, (4aR,7aS)—N-{3-[1-(4-Fluoro-benzyl)-4-hydroxy-2-oxo-2,4-a,5,6,7,7a-hexahydro-1H-[1]pyrindin-3-yl]-1,1-dioxo-1,4-dihydro-1λ^6-benzo[1,2,4]thiadiazin-7-yl}-methanesulfonamide] | > 7.70
8 | CS(=O)(=O)Nc1ccc2c(c1)S(=O)(=O)N=C(C1=C(O)[C@@H]3CCCC[C@@H]3N(Cc3ccc(F)cc3)C1=O)N2 [Example 13, (4aR,8aS)—N-{3-[1-(4-Fluoro-benzyl)-4-hydroxy-2-oxo-1,2,4a,5,6,7,8,8a-octahydro-quinolin-3-yl]-1,1-dioxo-1,4-dihydro-1λ^6-benzo[1,2,4]thiadiazin-7-yl}-methanesulfonamide] | 7.00 to 7.70
9 | CS(=O)(=O)Nc1ccc2c(c1)S(=O)(=O)N=C(C1=C(O)[C@@H]3CCC[C@@H]3N(Cc3ccc(C(F)(F)F)cc3)C1=O)N2 [Example 14, (4aR,7aS)—N-{3-[4-Hydroxy-2-oxo-1-(4-trifluoromethyl-benzyl)-2,4-a,5,6,7,7a-hexahydro-1H-[1]pyrindin-3-yl]-1,1-dioxo-1,4-dihydro-1λ^6 benzo[1,2,4]thiadiazin-7-yl}-methanesulfonamide] | 6.00 to 7.00
10 | CS(=O)(=O)Nc1ccc2c(c1)S(=O)(=O)N=C(C1=C(O)[C@@H]3CCC[C@@H]3N(Cc3cccc(C(F)(F)F)c3)C1=O)N2 [Example 15, (4aR,7aS)—N-{3-[4-Hydroxy-2-oxo-1-(3-trifluoromethyl-benzyl)-2,4-a,5,6,7,7a-hexahydro-1H-[1]pyrindin-3-yl]-1,1-dioxo-1,4-dihydro-1λ^6-benzo[1,2,4]thiadiazin-7-yl}-methanesulfonamide] | 6.00 to 7.00
11 | CS(=O)(=O)Nc1ccc2c(c1)S(=O)(=O)N=C(C1=C(O)C3CCC=CC3N(Cc3ccc(F)cc3)C1=O)N2 (stereo not shown) [Example 16, N-{3-[1-(4-Fluoro-benzyl)-4-hydroxy-2-oxo-1,2,4a,5,6,8a-hexahydro-quinolin-3-yl]-1,1-dioxo-1,4-dihydro-1λ^6-benzo[1,2,4]thiadiazin-7-yl}-methanesulfonamide] | > 7.70
12 | CC(C)CCN1C(=O)C(C2=NS(=O)(=O)c3cc(NS(C)(=O)=O)ccc3N2)=C(O)C2CCCCC21 (stereo not shown) [Example 20, N-{3-[2-(3-Methylbutyl)-5-hydroxy-3-oxo-2-aza-bicyclo[4.4.0]dec-4-en-4-yl]-1,1-dioxo-1,4-dihydro-1λ^6-benzo[1,2,4]thiadiazin-7-yl}-methanesulfonamide] | 7.00 to 7.70
13 | CC(C)(C)CCN1C(=O)C(C2=NS(=O)(=O)c3cc(NS(C)(=O)=O)ccc3N2)=C(O)C2CCCCC21 (stereo not shown) [Example 21, N-{3-[2-(3,3-Dimethylbutyl)-5-hydroxy-3-oxo-2-aza-bicyclo[4.4.0]dec-4-en-4-yl]-1,1-dioxo-1,4-dihydro-1λ^6-benzo[1,2,4]thiadiazin-7-yl}-methanesulfonamide] | 7.00 to 7.70
14 | Cc1cc(CN2C(=O)C(C3=NS(=O)(=O)c4cc(NS(C)(=O)=O)ccc4N3)=C(O)[C@@H]3CCC[C@@H]32)ccc1F [Example 22, (4aR,7aS)—N-{3-[1-(4-fluoro-3-methyl-benzyl)-4-hydroxy-2-oxo-2,4-a,5,6,7,7a-hexahydro-1H-[1]pyrindin-3-yl]-1,1-dioxo-1,4-dihydro-1λ^6-benzo[1,2,4]thiadiazin-7-yl}-methanesulfonamide] | > 7.70
15 | Cc1cccc(CN2C(=O)C(C3=NS(=O)(=O)c4cc(NS(C)(=O)=O)ccc4N3)=C(O)[C@@H]3CCC[C@@H]32)c1 [Example 23, (4aR,7aS)—N-{3-[4-Hydroxy-1-(3-methyl-benzyl)-2-oxo-2,4-a,5,6,7,7a-hexahydro-1H-[1]pyrindin-3-yl]-1,1-dioxo-1,4-dihydro-1λ^6-benzo[1,2,4]thiadiazin-7-yl}-methanesulfonamide] | > 7.70
16 | CS(=O)(=O)Nc1ccc2c(c1)S(=O)(=O)N=C(C1=C(O)[C@H]3CCC[C@H]3N(Cc3ccc(F)cc3)C1=O)N2 [Example 26, (4aS,7aR)—N-{3-[1-(4-Fluoro-benzyl)-4-hydroxy-2-oxo-2,4-a,5,6,7,7a-hexahydro-1H-[1]pyrindin-3-yl]-1,1-dioxo-1,4-dihydro-1λ^6-benzo[1,2,4]thiadiazin-7-yl}-methanesulfonamide] | 7.00 to 7.70
17 | CS(=O)(=O)Nc1ccc2c(c1)S(=O)(=O)N=C(C1=C(O)[C@@H]3CCC[C@@H]3N(Cc3ccc(F)c(F)c3)C1=O)N2 [Example 27, (4aR,7aS)—N-{3-[1-(3,4-Difluoro-benzyl)-4-hydroxy-2-oxo-2,4-a,5,6,7,7a-hexahydro-1H-[1]pyrindin-3-yl]-1,1-dioxo-1,4-dihydro-1λ^6-benzo[1,2,4]thiadiazin-7-yl]-methanesulfonamide] | > 7.70
18 | CC(C)CCN1C(=O)C(C2=NS(=O)(=O)c3cc(NS(C)(=O)=O)ccc3N2)=C(O)[C@@H]2CCC[C@@H]21 [Example 28, (4aR,7aS)—N-{3-[4-Hydroxy-1-(3-methyl-butyl)-2-oxo-2,4-a,5,6,7,7a-hexahydro-1H-[1]pyrindin-3-yl]-1,1-dioxo-1,4-dihydro-1λ^6-benzo[1,2,4]thiadiazin-7-yl]-methanesulfonamide] | > 7.70
19 | CC(C)(C)CCN1C(=O)C(C2=NS(=O)(=O)c3cc(NS(C)(=O)=O)ccc3N2)=C(O)[C@@H]2CCC[C@@H]21 [Example 29, (4aR,7aS)—N-{3-[1-(3,3-Dimethyl-butyl)-4-hydroxy-2-oxo-2,4-a,5,6,7,7a-hexahydro-1H-[1]pyrindin-3-yl]-1,1-dioxo-1,4-dihydro-1λ^6-benzo[1,2,4]thiadiazin-7-yl]-methanesulfonamide] | > 7.70
20 | CS(=O)(=O)Nc1ccc2c(c1)S(=O)(=O)N=C(C1=C(O)[C@@H]3CCC[C@@H]3N(CC3CC3)C1=O)N2 [Example 30, (4aR,7aS)—N-[3-(1-Cyclopropylmethyl-4-hydroxy-2-oxo-2,4-a,5,6,7,7a-hexahydro-1H-[1]pyrindin-3-yl)-1,1-dioxo-1,4-dihydro-1λ^6-benzo[1,2,4]thiadiazin-7-yl]-methanesulfonamide] | 6.00 to 7.00
21 | CS(=O)(=O)Nc1ccc2c(c1)S(=O)(=O)N=C(C1=C(O)[C@H]3CCCC[C@H]3N(Cc3ccc(F)cc3)C1=O)N2 [Example 31, (4aS, 8aR)—N-{3-[1-(4-Fluoro-benzyl)-4-hydroxy-2-oxo-1,2,4a,5,6,7,8,8a-octahydro-quinolin-3-yl]-1,1-dioxo-1,4-dihydro-1λ^6 benzo[1,2,4]thiadiazin-7-yl]-methanesulfonamide] | 7.00 to 7.70
22 | CC(C)(C)CCN1C(=O)C(C2=NS(=O)(=O)c3cc(NS(C)(=O)=O)ccc3N2)=C(O)C2CCCCCC21 (stereo not shown) [Example 32, N-{3-[1-(3,3-Dimethyl-butyl)-4-hydroxy-2-oxo-2,4-a,5,6,7,8,9,9a-octahydro-1H-cyclohepta[b]pyridin-3-yl]-1,1-dioxo-1,4-dihydro-1λ^6-benzo[1,2,4]thiadiazin-7-yl]-methanesulfonamide] | 7.00 to 7.70
